Like-named read-outs stand apart in the source and are kept apart here.
Assays:
AMPKα = AMPKα phosphorylation (Thr172) in MCF-7 cells, Western blotting; format: cell-based, human; conditions: 10 μM, with and without serum, FIG. 7
Protocol: FIG. 7. Effect of HCB on MCF-7 AMPKα phosphorylation (Thr172). MCF-7 cells were grown in complete media to 70% confluency and treated with 10 μM HCB. Cells were harvested at varied time (0-24 hr) and total proteins were extracted and analyzed by Western blotting. For 0% serum experiment, complete media was replaced with serum, phenol red and antibiotics free media 16 hours before treatment. Quantitation results are expressed as mean±S.D. (n=3, * indicates statistically significant difference, p<0.05). MCF-7 cells were grown in complete media (10% serum) to 80% confluence. Left panel: HCB was added to a final concentration of 10 μM in complete media; Right panel: complete media was replaced with serum free media and serum starved for 16 hours before HCB was added to a final concentration of 10 μM. At indicated time points after the addition of HCB, cells were harvested and analyzed by Western blotting. AMPK activation was reported as fractional Thr172 phosphorylation±S.D. (n=3, * indicates statistically significant difference from control).

CYP3A4 [1] = target: T1, CYP3A4 (Homo sapiens, UniProt P08684); assay: Midazolam hydroxylation by CYP3A4 in Nanodiscs; format: biochemical
T1 sequence (P08684 whole entry): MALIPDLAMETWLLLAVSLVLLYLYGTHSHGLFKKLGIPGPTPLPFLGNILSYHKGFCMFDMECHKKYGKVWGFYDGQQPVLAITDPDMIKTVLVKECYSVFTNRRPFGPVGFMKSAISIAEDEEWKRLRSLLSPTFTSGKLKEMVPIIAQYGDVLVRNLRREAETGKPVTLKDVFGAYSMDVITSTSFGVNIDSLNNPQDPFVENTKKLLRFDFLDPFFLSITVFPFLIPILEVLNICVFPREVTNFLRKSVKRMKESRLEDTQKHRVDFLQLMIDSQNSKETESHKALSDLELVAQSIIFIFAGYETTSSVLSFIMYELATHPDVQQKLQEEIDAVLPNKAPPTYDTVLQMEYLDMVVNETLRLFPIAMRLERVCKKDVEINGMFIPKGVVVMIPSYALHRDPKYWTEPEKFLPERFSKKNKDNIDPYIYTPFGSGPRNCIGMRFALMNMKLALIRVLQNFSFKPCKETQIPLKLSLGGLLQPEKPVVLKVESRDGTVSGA
Protocol: Titration of ˜6 uM CYP3A4 in POPC Nanodiscs was done using 16 mM stock solution obtained by 6-fold dilution of the original 100 mM DMSO solution in methanol. Aliquots of 0.1-0.2 μL were added to 120 μL solution of CYP3A4-ND in semi-micro cell (10 mm pathlength). Spectra with background corrected for scattering are shown in FIG. 17, and titration data points in FIG. 18.
These concentrations were selected based on IC50 for arachidonic acid metabolism mentioned in the first e-mail (low HCB concentration) and on our titration results. We used seven MDZ concentrations and measured both 1 OH and 4 OH hydroxy-MDZ products using HPLC with absorbance detection at 240 nm. Results are shown below in FIG. 19.

CYP3A4 [2] = target: T1, CYP3A4; assay: CYP3A4 Supersome mediated EET biosynthesis; format: biochemical; set-up: purchased Corning; host or cells: insect cells (microsomes)
Protocol: FIG. 1. Effects of HCB on CYP3A4 Supersome™ mediated EET biosynthesis. A 50 ul reaction in a 1.5 ml microcentrifuge tube contains the following components: arachidonic acid (60 μM), NDAPH (2 mM), DMSO or drug, CYP3A4 Supersome™ (1 μM) in potassium phosphate buffer (pH=7.4). The reaction was initiated by the addition of Supersome™ to the reaction mixture. After incubation at 37° C. for 30 minutes, 50 ul of acetonitrile spiked with 13C-EET internal standards was added and vortexed vigorously to terminate the reaction. Microcentrifuge tubes were centrifuged at 16,000×rpm for 10 min to precipitate proteins and other insoluble debris and 80 ul supernatant was transferred into HPLC vials and analyzed by an LC-MS as described previously (1). Results are expressed as mean±S.D. (n=3).
FIG. 2. Effects of DCB and HCB on CYP3A4 Supersome™ mediated EET biosynthesis. A 0.5 ml reaction in a 10 ml glass test tube contains the following components: arachidonic acid ([…]), NDAPH (2 mM), DMSO or drug solution (0.5 μl), CYP3A4 Supersome™ (80 nM) and 450.5 ul potassium phosphate buffer (pH=7.4). The reaction was initiated by the addition of Supersome™ to the rest. After incubation at 37° C. for 30 minutes, 0.5 ml of dichloromethane was added and vortexed vigorously to terminate the reaction. Organic phase and aqueous phase were separated by centrifugation at 3,000×rpm for 10 minutes. Two hundred microliters of the organic phase was withdrawn and evaporated to dryness. The residues were reconstituted with 20 ul methanol containing ^13C-EET internal standards and analyzed by an LC-MS as described previously (1). Results are expressed as mean±S.D. (n=3, * indicates a statistically significant difference from the control).
Recombinant Microsomal CYP-mediated EET Biosynthesis. CYP Supersomes™ (Corning, NY) (1 μM, final concentration) were incubated at 37° C. for 30 min in the presence of AA (120 μM) in 50 μl potassium phosphate buffer, (50 mM, pH 7.4), containing 1 mM EDTA and 1 mM NADPH. Reactions were terminated by addition of 50 μL of acetonitrile spiked with ^13C-EET internal standards followed by vigorous vortexing. After centrifugation at 16,000×rpm for 10 minutes to precipitate proteins and other insoluble debris and 80 μL supernatant was transferred into HPLC vials and analyzed by with an LC-ESI/MRM/MS method.
LC-ESI/MRM/MS Method for EET Measurement. EETs were measured by an LC-ESI/MRM/MS analytical method on a ThermoFisher Vantage triple quadrupole mass spectrometer (ThermoFisher, San Jose, CA) coupled with an UltiMate 3000 HPLC (ThermoFisher, San Jose, CA), using argon as the collision gas. Negative ion monitoring was performed at the following diagnostic product ions: 319 m/z→155 m/z for 8,9-EET; 319 m/z→179 m/z for 11,12-EET; 319 m/z→219 m/z for 14,15-EET; 339 m/z→163 m/z for 8,9-[^13C-20]EET; 339 m/z→233 m/z for 11,12-[^13C-20]EET; and 339 m/z→259 m/z for 14,15-[^13C-20]EET. Base-line resolution of EET regioisomers was achieved on a Phenomenex Luna C18 (2) reverse phase capillary column (250×0.5 mm, 5-μm particles) using the following mobile phase combinations: isocratic 5% B for 5 min, gradient 5-70% B for 5 min, hold at 70% for 30 min and then 95% for 10 min; A: 0.01% acetic acid in water, B: 0.01% acetic acid in acetonitrile; 10 μl/min flow rate. A standard curve was obtained by linear regression of the peak area ratio of authentic EET regioisomers against internal standards. The amount of EETs in samples was calculated according to the standard curve.

CYP3A4 [3] = target: T1, CYP3A4; assay: Stability with recombinant human CYP3A4; format: in vitro ADME; set-up: purchased Corning; host or cells: insect cells (microsomes)
Protocol: Stability of HCB with recombinant human CYP3A4 and CYP2C8 enzymes was evaluated. 10 μM HCB was tested wich CYP3A4 and 2C8 (200 pmol/L) (Table 8). NADPH (2 mM) was added as a cofactor. Total volume was 200 μL.
HCB was incubated for 0, 30, or 60 min at 37° C. Incubations were quenched with 2 volumes of acetonitrile followed by centrifugation for 10 min at 16,000 g.

For `CCCCCCNC(=N)NC(=N)NCC12C3C4C5C3C1C5C42` (stereo not shown) [HCB, Hexyl Cubanomethyl Biguanide], the AMPK phosphorylation (AMPKα) was “potent activation”, the “inhibition of MDZ hydroxylation” value (CYP3A4 [1]; 5.9 uM HCB, CYP3A4 Nanodiscs) was “Significant inhibition” and the “effect on the 1 OH/4 OH ratio of MDZ hydroxylation” value (CYP3A4 [1]; 64 uM HCB) was “clear and reproducible effect”. For the same compound, the IC50 (CYP3A4 [2]; (±)8,9-EET, Example B text, read-out: IC50, CYP3A4 biosynthesis of (±)8,9-EET) was 28 µM, the IC50 (CYP3A4 [2]; (±)11,12-EET, Example B text, read-out: IC50, CYP3A4 biosynthesis of (±)11,12-EET) was 56 µM and the IC50 (CYP3A4 [2]; (±)14,15-EET, Example B text, read-out: IC50, CYP3A4-mediated biosynthesis of (±)14,15-EET) was 3.8 µM. The Ki (CYP3A4 [2]; (±)-14,15-EET, read-out: Ki, inhibition of biosynthesis of (±)-14,15-EET) was 4.7 µM, the IC50 (CYP3A4 [2]; FIG. 1, (±)8,9-EET, curve fitting, read-out: IC50 for (±)8,9-EET biosynthesis) was 64.8 ± 6.5 µM and the IC50 (CYP3A4 [2]; FIG. 1, (±)11,12-EET, curve fitting, read-out: IC50 for (±)11,12-EET biosynthesis) was 26.5 ± 1.9 µM. The IC50 (CYP3A4 [2]; FIG. 1, (±)14,15-EET, arachidonic acid 60 μM, CYP3A4 Supersome 1 μM, 30 min, curve fitting, read-out: IC50 for (±)14,15-EET biosynthesis) was 4.7 ± 0.2 µM, the “fold more potent than HBB for inhibiting biosynthesis of (±)14,15-EET” value (CYP3A4 [2]; HCB vs HBB, CYP3A4) was about 2.5 fold and the “parent metabolite peak area after 60 min” value (CYP3A4 [3]; 10 μM HCB, recombinant human CYP3A4, NADPH 2 mM) was 93.91%. For the same compound, the degradation pathways (CYP3A4 [3]; recombinant human CYP3A4 and CYP2C8) was “oxidation, dealkylation, and hydrogenation”.

Reference: US20240067603A1, “CUBANYL BIGUANIDE COMPOUNDS” (REGENTS OF THE UNIVERSITY OF MINNESOTA, priority 2020, published 2024)
